Several values for one entry are separate records, joined by “and”; a condition that tells them apart may be missing. Equal entries are not always repeated.
Assays:
central CCK-B receptor = biological target: T1, central CCK-B receptor (Cavia porcellus, UniProt H0VZC5); assay: Inhibition of the binding of [3-H][N-methyl-N-leucine]CCK-8 to guinea-pig cortical membranes; conditions: for IC50 / inhibition of the binding of [N-methyl-N-leucine]CCK-8, result in words: guinea-pig cortical membranes; for IC50: 150 minutes at 25° C.
T1 construct: Cerebral cortices of male white guinea-pigs were thus used; from tissue; host or cells: cerebral cortex membranes of male white guinea-pigs
T1 sequence (H0VZC5 1-426): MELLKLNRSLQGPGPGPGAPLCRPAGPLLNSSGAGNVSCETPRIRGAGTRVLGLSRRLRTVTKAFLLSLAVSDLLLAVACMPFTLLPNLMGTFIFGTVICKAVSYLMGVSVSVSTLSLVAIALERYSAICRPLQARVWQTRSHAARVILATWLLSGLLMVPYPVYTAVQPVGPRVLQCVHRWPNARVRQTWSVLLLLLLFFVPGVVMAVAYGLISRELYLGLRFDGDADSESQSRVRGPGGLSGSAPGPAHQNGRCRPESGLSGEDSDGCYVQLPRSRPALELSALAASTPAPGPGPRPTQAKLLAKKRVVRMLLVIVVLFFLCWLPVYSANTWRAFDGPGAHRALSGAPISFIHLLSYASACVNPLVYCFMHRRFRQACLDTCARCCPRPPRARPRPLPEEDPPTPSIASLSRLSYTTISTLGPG
How it was run: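 Male guinea-pig cerebral cortex membranes (about 300 mcg protein/ml) incubated with non-sulphated [3-H]-labelled CCK-8 tracer and compound 150 minutes at 25° C. Pellet radioactivity counted by liquid scintillation; nonspecific binding defined with 5.10^-6 M CCK-8.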

[1] = tested on: acid secretion induced by pentagastrin; assay: Acid secretion induced by pentagastrin in the anaesthetized rat; assay type: in vivo; conditions: for ED50: iv, 1 h, I.V. bolus, pentagastrin 30 mcg/kg/h, read-out: Activity (ID50), inhibition of the acid secretion induced by pentagastrin
Protocol: The activity of the compounds of the invention against gastric secretion performed by means of a mechanism with an antigastrin effect, was examined in vivo in anaesthetized rats with the use of male animals weighing about 200 g. Gastric secretion was stimulated with pentagastrin and Lai's method [Gut 5, (1964), 327-341 ] was used, with slight modification.
After tracheotomy, the oesophagus and duodenum were cannulated. A tepid solution (37° C.) of 0.25 mM NaOH was perfused and was passed through the stomach by means of a peristaltic pump at a constant flow-rate of 1 ml/minute. After stabilization for 20 minutes, the stimulant, dissolved in a physiological solution, was perfused for 120 minutes at a dose of 30 mcg/kg/h, in a volume of 0.95 ml/hour. After perfusion for 60 minutes (the basal stimulation), the product under test was administered intravenously (I.V.) as a bolus and perfusion of the stimulant was continued for a further 60 minutes. The acid secretion was recorded continuously as a function of time.
The activity of the product was evaluated as the percentage reduction of secreted acidity after the administration of the product, in comparison with the basal acidity measured during the first 60 minutes of collection in the presence of pentagastrin alone.
The antagonistic compounds tested were administered in various doses so that an ID50, that is, the dose (in mg/kg I.V.) which could inhibit the effect of pentagastrin by 50%, could be calculated.

CCK-A = biological target: T2, CCK-A (Cavia porcellus, UniProt Q63931); assay: Anti-CCK-A activity on guinea-pig gall bladder stimulated in vitro by CCK-8; conditions: for Ratio I/II (CCK-A IC50 / CCK-B IC50): gall bladder IC50 over gastric mucous cells IC50; for IC50: guinea-pig gall bladder in vitro, CCK-8 10 ng/ml, read-out: CCK-A-antagonistic activity IC50 (I)
T2 construct: A longitudinal strip of guinea-pig gall-bladder was put in a bath for isolated organs; from tissue; host or cells: guinea-pig gall bladder longitudinal strip
T2 sequence (Q63931 1-430): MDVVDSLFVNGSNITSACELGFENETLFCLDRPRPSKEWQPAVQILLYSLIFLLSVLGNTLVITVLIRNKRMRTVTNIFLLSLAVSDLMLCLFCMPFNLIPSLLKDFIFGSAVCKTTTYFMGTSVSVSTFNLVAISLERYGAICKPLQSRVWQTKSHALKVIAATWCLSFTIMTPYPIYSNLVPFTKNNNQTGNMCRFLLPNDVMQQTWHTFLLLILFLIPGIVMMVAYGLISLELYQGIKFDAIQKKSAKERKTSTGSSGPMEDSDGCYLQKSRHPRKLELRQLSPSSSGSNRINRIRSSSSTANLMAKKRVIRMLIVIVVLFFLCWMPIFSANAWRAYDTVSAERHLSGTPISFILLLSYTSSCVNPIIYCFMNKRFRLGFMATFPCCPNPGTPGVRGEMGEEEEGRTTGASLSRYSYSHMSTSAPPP
Protocol: The experimental model used was guinea-pig gall bladder stimulated in vitro by CCK-8, with the use of lorglumide as the reference standard. A longitudinal strip of guinea-pig gall-bladder was put in a bath for isolated organs in the presence of Krebs buffer at a temperature of 32° C., with continuous oxygenation with an oxygen-CO2 mixture (95-[…]). The isometric contractions were detected by means of a force transducer and recorded.

[2] = biological target: T3, gastrin receptors or type-B cholecystokinin (CCK-B) receptors (Oryctolagus cuniculus, UniProt P46627); assay: Inhibition of the gastrin-induced increase of cytosolic calcium in rabbit gastric mucous-membrane cells (Fura 2); assay type: cell-based; conditions: for Ratio IC50 Binding cortex / IC50 (gastric mucous cells): binding values taken from Table 3; for CCK-B-antagonistic activity IC50 (II): data taken from Table 4 (rabbit gastric mucous cells), reprinted in Table 6; for IC50, inhibition of the increase of cytosolic calcium: rabbit gastric mucous cells enriched in parietal cells, gastrin 5×10^-8; for IC50 order of magnitude, peripheral antigastrin activity: rabbit gastric mucous cells
T3 construct: Rabbit gastric mucous-membrane cells were prepared by conventional techniques; endogenous in cells; host or cells: freshly isolated rabbit gastric mucosal cells, enriched by elutriation to about 70% parietal cells
T3 sequence (P46627 1-452): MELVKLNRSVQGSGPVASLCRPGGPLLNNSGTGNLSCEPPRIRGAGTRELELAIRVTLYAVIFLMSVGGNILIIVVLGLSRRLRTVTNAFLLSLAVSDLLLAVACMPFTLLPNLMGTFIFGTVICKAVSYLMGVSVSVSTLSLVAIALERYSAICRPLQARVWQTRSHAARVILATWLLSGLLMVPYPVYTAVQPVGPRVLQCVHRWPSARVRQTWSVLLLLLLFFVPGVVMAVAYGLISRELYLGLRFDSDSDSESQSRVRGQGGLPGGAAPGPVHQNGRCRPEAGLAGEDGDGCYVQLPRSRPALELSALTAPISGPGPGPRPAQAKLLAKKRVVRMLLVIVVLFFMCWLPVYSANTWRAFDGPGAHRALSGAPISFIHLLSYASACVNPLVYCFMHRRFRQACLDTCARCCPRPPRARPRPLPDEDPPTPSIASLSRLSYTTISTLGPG
Text: The parietal cells of the gastric mucous membrane are responsible for the secretion of HCl. They have specific membrane receptors which can be activated by gastrin and which have been defined as gastrin receptors or type-B cholecystokinin (CCK-B) receptors. Since it has been observed that the activation of the CCK-B receptors by gastrin leads to an increase in the cytosolic levels of calcium ions, a technique involving the measurement of the increase in intracellular calcium induced by gastrin in the presence and in the absence of the compounds of the invention was used as an index of the antigastrin activity of the compounds. Rabbit gastric mucous-membrane cells were prepared by conventional techniques with the use of collagenase and pronase as digestive enzymes. The cellular preparation obtained by the enzymatic digestion was composed of parietal cells, zymogen cells and mucous-membrane cells. […] The cells were then washed and resuspended in a saline solution buffered with HEPES containing, in mM: […] Each measurement was carried out on cells in suspension (0.8×10^6 /ml) at a thermostatically-controlled temperature of 37° C. and with constant magnetic stirring. The fluorescence was recorded with the use of a spectrofluorometer. The operative wavelengths were 340/380 nm for excitation and 505 nm for emission. […] Biol. Chem. 260 (1985), 3440]. […] The results thus obtained for some compounds of the invention are given in Table 4, which also gives an index derived from the ratio between the peripheral antigastrin activity just described and the displacement activity found in the test on binding to the guinea-pig cortex receptors described above.

CCK-B receptors = conditions: guinea-pig; Knapp et al; cited from earlier work

| IC50 (central CCK-B receptor) [nM] | Ratio I/II (CCK-A IC50 / CCK-B IC50) (CCK-A) | IC50 (CCK-A) [nM] | Ratio IC50 Binding cortex / IC50 (gastric mucous cells) [2] | CCK-B-antagonistic activity IC50 (II) [2] [nM] | IC50, inhibition of the increase of cytosolic calcium [2] [nM] | times more active than the corresponding diastereoisomer at the carbon atom (**) (central CCK-B receptor; binding, guinea-pig cortex) [times] | inhibition of the binding of [N-methyl-N-leucine]CCK-8, result in words (central CCK-B receptor) | IC50 order of magnitude, peripheral antigastrin activity [2] | Compound | ED50 [1] | antigastrin activity relative to the diastereoisomer at the carbon atom (**) ([1]; pentagastrin-induced acid secretion) | affinity for the receptors of the cortex (CCK-B) relative to those of the pancreas (CCK-A) (CCK-B receptors) |
| --- | --- | --- | --- | --- | --- | --- | --- | --- | --- | --- | --- | --- |
| 220 | 160 | 4800 | 7.3 | 30 | 30 | 1.5 |  |  | O=C(O)C[C@@H](Cc1ccccc1)NC(=O)CC[C@@H](NC(=O)c1cc(Cl)cc(Cl)c1)C(=O)N1CCC2(CCCC2)CC1 [Compound 15] | 13.5 mg/kg and 22.4 µmol/kg |  |  |
| 70 | 1214 | 8500 | 10.0 | 7 | 7 |  | potent inhibitors | nanomolar order of magnitude | O=C(CC[C@@H](NC(=O)c1cc(Cl)cc(Cl)c1)C(=O)N1CCC2(CCCC2)CC1)N[C@H](Cc1cccc2ccccc12)C(=O)O [Compound 25] | 7.1 mg/kg and 11.1 µmol/kg |  |  |
| 100 | 1837 | 14700 | 12.5 | 8 | 8 |  | potent inhibitors | nanomolar order of magnitude | O=C(CC[C@@H](NC(=O)c1cc(Cl)cc(Cl)c1)C(=O)N1CCC2(CCCCC2)CC1)N[C@H](Cc1c[nH]c2ccccc12)C(=O)O [Compound 30] | 15.2 mg/kg and 23.7 µmol/kg |  |  |
| 450 | 160.0 | 4800 | 15.0 |  | 30 |  |  |  | O=C(CC[C@@H](NC(=O)c1cc(Cl)cc(Cl)c1)C(=O)N1CCC2(CCCC2)CC1)Nc1ccccc1C(=O)O [Compound 50] | 12 mg/kg and 21.4 µmol/kg |  |  |

The next lines start with the compound.

| Compound | IC50 (central CCK-B receptor) [nM] | Ratio I/II (CCK-A IC50 / CCK-B IC50) (CCK-A) | IC50 (CCK-A) [nM] | Ratio IC50 Binding cortex / IC50 (gastric mucous cells) [2] | CCK-B-antagonistic activity IC50 (II) [2] [nM] | IC50, inhibition of the increase of cytosolic calcium [2] [nM] | times more active than the corresponding diastereoisomer at the carbon atom (**) (central CCK-B receptor; binding, guinea-pig cortex) [times] | inhibition of the binding of [N-methyl-N-leucine]CCK-8, result in words (central CCK-B receptor) | IC50 order of magnitude, peripheral antigastrin activity [2] | ED50 [1] | antigastrin activity relative to the diastereoisomer at the carbon atom (**) ([1]; pentagastrin-induced acid secretion) | affinity for the receptors of the cortex (CCK-B) relative to those of the pancreas (CCK-A) (CCK-B receptors) |
| --- | --- | --- | --- | --- | --- | --- | --- | --- | --- | --- | --- | --- |
| O=C(CC[C@@H](NC(=O)c1cc(Cl)cc(Cl)c1)C(=O)N1CCC2(CCCC2)CC1)N[C@@H](Cc1ccccc1)C(=O)O [Compound 10] | 730 | 179 | 35800 | 3.7 | 200 | 200 |  |  |  | 28.4 mg/kg and 48.3 µmol/kg |  |  |
| O=C(CC[C@@H](NC(=O)c1cc(Cl)cc(Cl)c1)C(=O)N1CCC2(CCCC2)CC1)N[C@@H](Cc1c[nH]c2ccccc12)C(=O)O [Compound 20] | 220 | 1397 | 41900 | 7.3 | 30 | 30 |  |  |  | 10.9 mg/kg and 17.4 µmol/kg | almost the same antigastrin activity |  |
| non-sulphated [3-H] [N-methyl-N-leucine]CCK-8 |  |  |  |  |  |  |  |  |  |  |  | approximately 4000 times |
